Laboratory results published in patent US9901573B2, “Compositions, methods, and kits for regulating energy metabolism” (NuSirt Sciences, Inc., priority 2012, dated 2018).
Marks after values point to notes of the source that are not given here.

Assays:
C2C12 myotubes [1] = experiment: Mitochondrial biogenesis (mitochondrial mass, NAO probe); type: cell-based; settings: FIG. 13
Procedure: (§1) Cell Culture: C2C12 and 3T3-L1 preadipocytes (American Type Culture Collection) were plated at a density of 8000 cells/cm^2 (10 cm^2 dish) and grown in Dulbecco's modified eagle's medium (DMEM) containing 10% fetal bovine serum (FBS), and antibiotics (growth medium) at 37° C. in 5% CO2. Confluent 3T3-L1 preadipocytes were induced to differentiate with a standard differentiation medium consisting of DMEM medium supplemented with 10% FBS, 250 nM dexamethasone, 0.5 mM 3-Isobutyl-1-methylxanthine (IBMX) and 1% penicillin-streptomycin. Preadipocytes were maintained in this differentiation medium for 3 days and subsequently cultured in growth medium. Cultures were re-fed every 2-3 days to allow >90% cells to reach fully differentiation before conducting chemical treatment. For differentiation of C2C12 cells, cells were grown to 100% confluence, transferred to differentiation medium (DMEM with 2% horse serum and 1% penicillin-streptomycin), and fed with fresh differentiation medium every day until myotubes were fully formed (3 days). Mitochondrial biogenesis: Mitochondrial biogenesis was assessed as change in mitochondrial mass, as previously described (2). The mitochondrial probe NAO (Invitrogen, Carlsbad, Calif.) was used to analyze mitochondrial mass by fluorescence (excitation 485 nm and emission 520 nm) and quantitative data was obtained with a fluorescence microplate reader (Synergy HT, BioTek Instruments, Winooski, Vt.). The intensity of fluorescence was expressed as arbitrary units per μg protein and normalized to control values within each assay.

Phospho-AMPKα (Thr172) = Phospho-AMPKα (Thr172) Western blot in myotubes; type: cell-based; settings: C2C12 myotubes, FIG. 11
Procedure: as §1, with “days).” for “days). Mitochondrial biogenesis: Mitochondrial biogenesis was assessed as change in mitochondrial mass, as previously described (2). The mitochondrial probe NAO (Invitrogen, Carlsbad, Calif.) was used to analyze mitochondrial mass by fluorescence (excitation 485 nm and emission 520 nm) and quantitative data was obtained with a fluorescence microplate reader (Synergy HT, BioTek Instruments, Winooski, Vt.). The intensity of fluorescence was expressed as arbitrary units per μg protein and normalized to control values within each assay.”
(§2) Western blot: The Phospho-AMPKα (Thr172)- and Sirt1 (mouse specific)-antibody was obtained from Cell Signaling (Danvers, Mass.). C2C12 myotubes were treated as indicated in results and the cellular fractions were prepared using standard methods. Protein was measured by BCA kit (Thermo Scientific). […] Visualization and chemiluminescent detection was conducted using BioRad ChemiDoc instrumentation and software (Bio-Rad Laboratories, Hercules, Calif.) and band intensity was assessed using Image Lab 4.0 (Bio-Rad Laboratories, Hercules, Calif.), with correction for background and loading controls. P-AMPK was detected at 61-66 kDA and Sirt1 was detected at 104-115 kDA.

C2C12 myotubes [2] = experiment: Fatty acid oxidation (O2 consumption response to palmitate) in myotubes; type: cell-based; settings: vs control
Procedure: Cell Culture: C2C12 and 3T3-L1 preadipocytes (American Type Culture Collection) were plated at a density of 8000 cells/cm^2 (10 cm^2 dish) and grown in Dulbecco's modified eagle's medium (DMEM) containing 10% fetal bovine serum (FBS), and antibiotics (growth medium) at 37° C. in 5% CO2. Confluent 3T3-L1 preadipocytes were induced to differentiate with a standard differentiation medium consisting of DMEM medium supplemented with 10% FBS, 250 nM dexamethasone, 0.5 mM 3-Isobutyl-1-methylxanthine (IBMX) and 1% penicillin-streptomycin. Preadipocytes were maintained in this differentiation medium for 3 days and subsequently cultured in growth medium. Cultures were re-fed every 2-3 days to allow >90% cells to reach fully differentiation before conducting chemical treatment. For differentiation of C2C12 cells, cells were grown to 100% confluence, transferred to differentiation medium (DMEM with 2% horse serum and 1% penicillin-streptomycin), and fed with fresh differentiation medium every day until myotubes were fully formed (3 days). Fatty acid oxidation: Cellular oxygen consumption was measured using a Seahorse Bioscience XF24 analyzer (Seahorse Bioscience, Billerica, Mass.) in 24-well plates at 37° C., as described by Feige et al (1) with slight modifications. Cells were seeded at 40,000 cells per well, differentiated as described above, treated for 24 hours with the indicated treatments, washed twice with non-buffered carbonate-free pH 7.4 low glucose (2.5 mM) DMEM containing carnitine (0.5 mM), equilibrated with 550 μL of the same media in a non-CO2 incubator for 45 minutes, and then inserted into the instrument for 15 minutes of further equilibration, followed by O2 consumption measurement. Three successive baseline measurements at five-minute intervals were taken prior to injection of palmitate (200 μM final concentration). Four successive 5-minute measurements of O2 consumption were then conducted, followed by 10 minute re-equilibration and another 3-4 5-minute measurements. This measurement pattern was then repeated over a 4-6 hour period. Data for each sample were normalized to the pre-palmitate injection baseline for that sample and expressed as % change from that baseline. […] The area under of the curve of O2 consumption change from baseline for each sample was then calculated and used for subsequent analysis.

3T3-L1 adipocytes [3] = experiment: Fatty acid oxidation (O2 consumption response to palmitate) in adipocytes; type: cell-based; settings: FIG. 8, % change from control
Procedure: (§3) Cell Culture: C2C12 and 3T3-L1 preadipocytes (American Type Culture Collection) were plated at a density of 8000 cells/cm^2 (10 cm^2 dish) and grown in Dulbecco's modified eagle's medium (DMEM) containing 10% fetal bovine serum (FBS), and antibiotics (growth medium) at 37° C. in 5% CO2. Confluent 3T3-L1 preadipocytes were induced to differentiate with a standard differentiation medium consisting of DMEM medium supplemented with 10% FBS, 250 nM dexamethasone, 0.5 mM 3-Isobutyl-1-methylxanthine (IBMX) and 1% penicillin-streptomycin. Preadipocytes were maintained in this differentiation medium for 3 days and subsequently cultured in growth medium. Cultures were re-fed every 2-3 days to allow >90% cells to reach fully differentiation before conducting chemical treatment. […]
Fatty acid oxidation: Cellular oxygen consumption was measured using a Seahorse Bioscience XF24 analyzer (Seahorse Bioscience, Billerica, Mass.) in 24-well plates at 37° C., as described by Feige et al (1) with slight modifications. […] Data for each sample were normalized to the pre-palmitate injection baseline for that sample and expressed as % change from that baseline. […] The area under of the curve of O2 consumption change from baseline for each sample was then calculated and used for subsequent analysis.

Sirt1 = Sirt1 protein expression Western blot in myotubes; type: cell-based, mouse; settings: C2C12 myotubes, FIG. 12
Procedure: as §3
as §2, with “C2C12 myotubes were treated as indicated in results and the cellular fractions were prepared using standard methods.” left out

3T3-L1 adipocytes [4] = experiment: Intracellular Ca2+ by fura-2 imaging in adipocytes; type: cell-based
Procedure: Cell culture: 3T3-L1 pre-adipocytes were incubated at a density of 8000 cells/cm^2 (10 cm^2 dish) and grown in the absence of insulin in Dulbecco's modified Eagle's medium (DMEM) containing 10% FBS and antibiotics (1% penicillin-streptomycin)(adipocyte medium) at 37° C. in 5% CO2 in air. Confluent pre-adipocytes were induced to differentiate with a standard differentiation medium consisting of DMEM-F10 (1:1, vol/vol) medium supplemented with 1% fetal bovine serum (FBS), 250 nM dexamethasone (DEXA), isobutylmethylxanthine (IBMX) (0.5 mM) and antibiotics. Pre-adipocytes were maintained in this differentiation medium for 3 days (unless specifically indicated) and subsequently cultured in adipocyte medium. Cultures were re-fed every 2-3 days to allow 90% cells to reach fully differentiation before treatment.
Intracellular Ca^2+ ([Ca^2+]i): [Ca^2+]i was measured using a fura-2 dual wavelength fluorescence imaging system. Adipocytes were plated and differentiated in 35 mm dishes with glass coverslips (P35G-0-14-C, MatTek Corporation). Prior to [Ca^2+]i measurement, cells were preincubated in serum-free medium overnight and rinsed with Hepes Balanced Salt Solution (HBSS) containing the following components (in mM): NaCl 138, CaCl2 1.8, MgSO4 0.8, NaH2PO4 0.9, NaHCO3 4, glucose 5, glutamine 6, Hepes 20, and bovine serum albumin 1%. Cells were loaded with fura-2 acetoxymethyl ester (AM) (10 μM) in the same buffer for 2 hr at 37° C. in a dark incubator with 5% CO2. To remove extracellular dye, cells were rinsed with HBSS 3 times and then postincubated at room temperature for an additional 1 hr for complete hydrolysis of cytoplasmic fura-2 AM. The dishes with dye-loaded cells were mounted on the stage of Nikon TMS-F fluorescence inverted microscope with a Cohu 4915 CCD camera. Fluorescent images were captured alternatively at excitation wavelength of […] with an emission wavelength of 520 nm. [Ca^2]i was calculated using a standard ratio equation. Each analysis evaluated responses of 8-10 representative whole cells. Images were analyzed with InCytIm2 version 4.62 imaging software (Intracellular Imaging, Cincinnati, Ohio). Images were calibrated using a fura-2 calcium imaging calibration kit (Molecular Probes, Eugene, Oreg.) to create a calibration curve in solution, and cellular calibration was accomplished using digitonin (25 μM) and pH 8.7 Tris-EGTA (100 mM) to measure maximal and minimal [Ca^2+]i levels.

3T3-L1 adipocytes [5] = experiment: Glucose utilization (extracellular acidification) in adipocytes; type: cell-based; settings: FIG. 10
Procedure: as §3
(§4) Glucose Utilization: In the absence of a fatty acid source and oxidative metabolism, glycolysis and subsequent lactate production results in extracellular acidification, which was also measured using a Seahorse Bioscience XF24 analyzer. […] Data for each sample were normalized to the pre-glucose injection baseline for that sample and expressed as % change from that baseline. The area under of the curve of extracellular acidification change from baseline for each sample was the calculated and used for subsequent analysis.

C2C12 myotubes [6] = experiment: Glucose utilization (extracellular acidification) in myotubes; type: cell-based; settings: FIG. 9
Procedure: as §3, §4

[7] = FIG. 4/5, 24 hours, leucine, valine, isoleucine 0.5 mM, B6 100 nM as pyridoxal phosphate

SMILES	increase in mitochondrial biogenesis (mitochondrial biomass) (C2C12 myotubes [1])	AMPK activation (Phosphorylated AMPK Thr172), increase (Phospho-AMPKα (Thr172))	increase in fatty acid oxidation (C2C12 myotubes [2]; [7])	increase in fatty acid oxidation (3T3-L1 adipocytes [3])	increase in fatty acid oxidation (C2C12 myotubes [2]; FIG. 6/7, metformin 100 μM)	Sirt1 protein levels, increase (Sirt1)	Intracellular Ca2+ (3T3-L1 adipocytes [4]; PLP 50 nM)	Intracellular Ca2+ (3T3-L1 adipocytes [4]; PLP 100 nM)	increase in glucose utilization (3T3-L1 adipocytes [5])	increase in glucose utilization (C2C12 myotubes [6])
CC(C)[C@H](N)C(=O)O [valine]	no significant effect	Neither treatment with leucine, valine, nor B6 alone exerted any significant effect	small change in fatty acid oxidation when compared to control	–	–	–	–	–	–	–
CC[C@H](C)[C@H](N)C(=O)O [isoleucine]	no significant effect	–	small change in fatty acid oxidation when compared to control	small change from baseline	–	–	–	–	–	–
CN(C)C(=N)N=C(N)N [metformin]	effect similar to leucine	–	–	–	comparable effect	–	–	–	–	–
Cc1ncc(COP(=O)(O)O)c(C=O)c1O [PLP, pyridoxal phosphate]	–	Neither treatment with leucine, valine, nor B6 alone exerted any significant effect	no significant independent effect	–	–	unaffected	133.2^c ± nM	96.3^b ± nM	no independent effect	no independent effect
